Legend:
[1] = Example 10: 12-week placebo-controlled study in mild to moderate Alzheimer's Disease patients, plasma pharmacokinetics; type: in vivo, human; settings: AD patients; for AUC∞: mean, only patients with estimable elimination rate constant
Source text: (§1) In the following examples and elsewhere herein, terms are as defined below. The pharmacokinetic parameters were derived by non-compartmental analysis using WinNonlin® (Pharsight Corporation, Mountain View, Calif.) or SAS® for Windows® (SAS Institute Inc., Cary, N.C.).
AUCss—the area under the plasma concentrations versus time curve during a dosing interval at steady state.
(§2) A multicenter, randomized, double-blind, placebo-controlled and parallel designed study is made with 3-APS in the formulation described in Table 5 above in patients suffering from mild to moderate Alzheimer's Disease (AD). An objective of this study is to assess the safety and tolerability of 3-APS and to assess its pharmacokinetics in AD patients. A total of fifty-eight (58) mild to moderate AD patients (MMSE scores=13 to 26) are enrolled from 6 centers in the United States. Patients are randomized to receive in 1:1:1:1 ratio of NC-758-1 at 50, 100, 150 mg BID or placebo BID for 12 weeks. Study medication is administered orally (tablet). For doses at multiples of 50 mg, multiple 50 mg tables are administered. Each patient is evaluated on 6 occasions at screening, baseline [Week 0], weeks 2, 4, 8 and 12. Blood samples are collected from each patient prior to dosing and at specified time points through 12 h post-dose after the first dose (Week 0) and the last dose (Week 12). Blood samples are also collected prior to the first dose of the day during Week 2, 4 and 8 visits.

[2] = Example 12: 3-APS concentration in cerebrospinal fluid of CAA patients; type: in vivo; settings: human, oral, 5 hours post-dose on Week 12, range of means, CSF samples from five patients, some below lower limit of quantitation, read-out: mean concentrations of 3-APS in the cerebrospinal fluid (CSF)
Protocol: A total of 24 patients who have had lobar cerebral hemorrhage are randomized to receive in a 1:1:1 ratio 3-APS 50, 100 or 150 mg BID for 12 weeks. A lumbar puncture is performed on an optional basis at Weeks 0 and 12 to assess the pharmacological effect of 3-APS on Aβ40, Aβ42 and tau concentrations in cerebrospinal fluid (CSF) and to measure the drug concentration in the CSF. Rating instruments (NIHSS, Barthel Index, ADAS-cog and EXIT25) are administered at Weeks 0 and 12 to evaluate the neurological and cognitive functions as well as the daily functioning.
For pharmacokinetic investigations, blood samples are collected from each patient prior to dosing and at specified time points through 12 h post-dose after the first dose (Week 0) and the last dose (Week 12). Blood samples are also collected prior to the first dose of the day during Week 2, 4 and 8 visits. CSF samples are obtained by lumbar puncture prior to dosing on Week 0 and approximately 5 hours post-dose on Week 12.
The mean concentrations of 3-APS in the cerebrospinal fluid (CSF) 5 hours post-dose on Week 12 range from 3.28 to 4.10 ng/mL confirming that the central nervous system is exposed to the drug.

[3] = dog, in vivo
Protocol: Furthermore, the non-hygroscopic nature of the acid form makes it desirable as active pharmaceutical ingredient. To further protect against any possible gastrointestinal intolerance that could result from the acid form, the tablets are enteric-coated and a modified-release agent is added to control any rapid release of the drug in the stomach and the intestine, respectively.

[4] = Example 11: additional tests, crossing of the blood/brain barrier; type: in vivo, human; settings: treated AD patients
[5] = Example 7 Part II: food effect, single oral 200 mg 3-APS in young male subjects, plasma pharmacokinetics; type: in vivo, human; settings: single oral 200 mg (Table 3 formulation); for Cmax: male, po, 200 mg
Protocol: as §1
Following single oral dosing of 200 mg 3-APS (modified-release coated formulation as described in Table 3 above) to young male subjects (aged between 18 and 45 years) under fasted and fed (high fat) conditions, maximum plasma concentrations of 3-APS are attained […] post-dose under fasted and fed conditions, respectively (Table 9A).

[6] = Example 10: 3-APS concentration in cerebrospinal fluid of AD patients; type: in vivo; settings: human
Source text: as §2
(Patients having a CSF level below the lower limit of quantitation of the assay are considered as zero.) CSF concentrations of 3-APS on Day 2 of Week 12 after twice daily oral administration for 12 weeks are as follows: […]

[7] = Example 9 Part II: food effect, single oral 100 mg 3-APS in elderly subjects, plasma pharmacokinetics; type: in vivo; settings: both sexes, human, single oral 100 mg (Table 5 tablet), elderly male and female subjects; for AUC(0-inf) / Cmax / AUC(0-t): po, 100 mg; for AUC(0-inf): mean, only subjects with estimable elimination rate constant; for Cmax / AUC(0-t): n = 8, mean; for AUC(0-t): read-out: AUC0-Tlast
Protocol: as §1
Following single oral dosing of 100 mg 3-APS (modified-release coated formulation modified-release enteric-coated tablet as described in Table 5 above) to elderly (55 years or older) male and female subjects under fasted and fed (high fat) conditions, maximum plasma concentrations of 3-APS are attained at 5 and 10.5 h post-dose under fasted and fed conditions, respectively (Table 12A below and FIG. 5 showing the Mean Plasma Concentration-Time Profiles of 3-APS under Fasted and Fed Conditions following Single Oral Administration of 100 mg to Elderly Male and Female Subjects).

[8] = 50 mg BID (Table 5 tablet), Week 0 (single dose), n = 15, mean
[9] = 100 mg BID (Table 5 tablet), Week 0 (single dose), n = 16, mean
[10] = 150 mg BID (Table 5 tablet), Week 0 (single dose), n = 14, mean

NCCCS(=O)(=O)O [3-APS, 3-amino-1-propanesulfonic acid]
AUC∞ ([1]; 50 mg BID (Table 5 tablet), Week 0 (single dose)): 1396 ng·h/mL
AUC(0-t) [1, 8]: 1321 ng·h/mL
Cmax [1, 8]: 310 ng/mL
Tmax ([1]; 50 mg BID (Table 5 tablet), Week 12 (repeated), n = 15, median): 3 h
AUC∞ ([1]; 100 mg BID (Table 5 tablet), Week 0 (single dose)): 2569 ng·h/mL
AUC(0-t) [1, 9]: 2467 ng·h/mL
Cmax [1, 9]: 618 ng/mL
Tmax ([1]; 100 mg BID (Table 5 tablet), Week 0 (single dose), n = 16, median): 4.5 h
Tmax ([1]; 100 mg BID (Table 5 tablet), Week 12 (repeated), n = 14, median): 3.5 h
AUC∞ ([1]; 150 mg BID (Table 5 tablet), Week 0 (single dose)): 3418 ng·h/mL
AUC(0-t) [1, 10]: 2792 ng·h/mL
Cmax [1, 10]: 624 ng/mL
Tmax ([1]; 150 mg BID (Table 5 tablet), Week 12 (repeated), n = 11, median): 3 h
concentration at 5 h [2]: 3.28 to 4.1 ng/mL
tolerability [3]: better tolerated than the sodium salt form
crossing of the blood/brain barrier [4]: crossed the blood/brain barrier
AUC(0-inf) ([5]; human, plasma, Fasting Arm, mean, only subjects with estimable elimination rate constant): 2400 ng·h/mL
AUC(0-t) ([5]; human, plasma, Fed Arm (high fat), n = 8, mean, read-out: AUC0-Tlast): 3870 ng·h/mL
Tmax ([5]; human, plasma, Fed Arm (high fat), n = 8, median): 13.5 h
Cmax ([5]; human, plasma, Fasting Arm, n = 8, mean): 594 ng/mL
Cmax ([5]; human, plasma, Fed Arm (high fat), n = 8, mean): 631 ng/mL
AUC0-Tlast ([5]; Fasting Arm, n = 8, mean): 2196 ng·h/mL
AUC∞ ([5]; Fed Arm (high fat), mean, only subjects with estimable elimination rate constant): 4497 ng·h/mL
concentration at 5 h ([6]; dose 50 mg twice daily oral for 12 weeks, Day 2 of Week 12, read-out: CSF concentration with mean ± standard deviation): 1.07 ± 1.8 ng/mL
concentration at 5 h ([6]; dose 100 mg twice daily oral for 12 weeks, Day 2 of Week 12, read-out: CSF concentration with mean ± standard deviation): 4.36 ± 2.66 ng/mL
concentration at 5 h ([6]; dose 150 mg twice daily oral for 12 weeks, Day 2 of Week 12, read-out: CSF concentration with mean ± standard deviation): 3.87 ± 2.74 ng/mL
concentration at 5 h ([6]; oral, 5 hours post-dose on Week 12, range of means across dose groups, levels below lower limit of quantitation considered as zero, read-out: mean concentrations of 3-APS in the cerebrospinal fluid (CSF)): 2.61 to 7.33 ng/mL
AUC(0-inf) ([7]; Fasting Arm): 3290 ng·h/mL
Cmax ([7]; Fasting Arm): 931 ng/mL
AUC(0-t) ([7]; Fasting Arm): 3220 ng·h/mL
AUC(0-inf) ([7]; Fed Arm (high fat)): 2830 ng·h/mL
Cmax ([7]; Fed Arm (high fat)): 671 ng/mL
AUC(0-t) ([7]; Fed Arm (high fat)): 3400 ng·h/mL
Tmax ([7]; Fed Arm (high fat), n = 8, median): 10.5 h
